Source: US5872150A, “Treatment of prostate disease with a nonsteroidal anti-androgenic compound” (Merck & Co., Inc., priority 1997, dated 1999)
“Also recorded” adds a separate entry of the source.

Assays:
[1] = system: DDT1 cells; assay: DDT1 Assay: androgen (testosterone) dependent growth of DDT1 cells, MTS proliferation; format: cell-based, Syrian hamster
Description: Cells were plated in a 96 well plate at 2,000 cells/well in DFITS+0.1% fetal calf serum. […] Cell growth data were normalized to the greatest number of cells and error bars represent +/- one standard error of the mean (sem).
Media was charged every 48 hours. Cells were plated at ~2,000/well in 96-well plates or ~6,000 cells/cm^2 in DMEM: F12 (GIBCO BRL) nutrient mixture (1:)+ITS™ (insulin, transferrin, selenious acid) (Collaborative Biomedical Products/Becton Dickinson Labware) (final concentrations 5 μg/mL insulin, 5 μ/mL transferrin, 5 ng/mL selenious acid) (DFITS media)+0.1% bovine calf serum (Hyclon®, BCS defined, iron supplemented).
After 24 hours, the cells were washed with the same media except without added serum and replaced with fresh serum-free DFITS medium (day 0).
In a typical experiment, cells were plated in sets of 12 in the presence of either a mock ethanol control (0.1-0.2% total volume) or N-(4-chlorophenyl)-(Z,Z)-2,3-bis(cyclopropylmethylene) cyclopentane carboxamide dissolved in 100% ethanol as a 1000X concentrated stock solution. Cell growth was then measured using a CellTiter96™ Non-Radioactive Cell Proliferation Assay (Promega Corporation) according to the manufacturer's protocol using a Bio Kinetics EL 340 microplate reader (BioTek Instruments, Inc.). 3-(4,5-dimethylthiazol-2-yl)-5-(3-carboxyl methoxyphenyl)-2-(4-sulfophenyl)-2H-tetrazolium (MTS) was diluted into media at a final concentration of 333 μg/mL and penazine methosulfate (PMS) was used at a final concentration of 25 μM with a total volume per well of 100 μL. Plates were then incubated for one hour at 37° C. in a humidified 5% CO2 atmosphere.

[2] = target: T1, androgen receptor (Homo sapiens, UniProt P10275); assay: Binding to the human androgen receptor (hAR), displacement of [3H]-DHT, stable CHO transfectants; design: expressed in transfected cells; cytosol, 100,000×g supernatant; details: stable transfectants of CHO cells
T1 sequence (P10275 1-920): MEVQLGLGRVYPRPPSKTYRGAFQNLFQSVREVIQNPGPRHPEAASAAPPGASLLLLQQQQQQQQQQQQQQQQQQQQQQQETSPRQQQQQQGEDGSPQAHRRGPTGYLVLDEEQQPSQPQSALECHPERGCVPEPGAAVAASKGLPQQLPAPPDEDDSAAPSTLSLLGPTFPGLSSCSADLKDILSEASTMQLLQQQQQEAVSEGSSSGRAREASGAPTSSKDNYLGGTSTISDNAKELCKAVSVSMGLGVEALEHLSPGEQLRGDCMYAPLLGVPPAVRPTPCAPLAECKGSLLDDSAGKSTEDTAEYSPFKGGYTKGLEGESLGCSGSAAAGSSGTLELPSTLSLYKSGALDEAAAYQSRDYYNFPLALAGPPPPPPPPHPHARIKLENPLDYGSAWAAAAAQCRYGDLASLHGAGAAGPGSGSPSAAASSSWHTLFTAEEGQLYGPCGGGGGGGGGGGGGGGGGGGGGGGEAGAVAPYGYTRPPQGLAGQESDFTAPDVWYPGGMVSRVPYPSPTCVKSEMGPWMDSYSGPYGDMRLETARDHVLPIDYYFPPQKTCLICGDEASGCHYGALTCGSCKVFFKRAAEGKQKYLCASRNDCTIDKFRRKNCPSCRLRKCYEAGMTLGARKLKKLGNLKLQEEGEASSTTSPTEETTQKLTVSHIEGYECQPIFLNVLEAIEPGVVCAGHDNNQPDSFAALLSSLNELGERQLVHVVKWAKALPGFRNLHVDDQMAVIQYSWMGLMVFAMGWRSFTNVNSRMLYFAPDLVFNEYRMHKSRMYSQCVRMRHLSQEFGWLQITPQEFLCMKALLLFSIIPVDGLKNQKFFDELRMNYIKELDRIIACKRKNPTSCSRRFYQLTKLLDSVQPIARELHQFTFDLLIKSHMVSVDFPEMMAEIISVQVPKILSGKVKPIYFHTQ
Description: Binding to the Androgen Receptor
All samples were prepared in duplicate. […] Free steroids were removed by addition of dextran-coated charcoal followed by centrifugation at 3,000×g for fifteen minutes at 4° C.
47: 1080-1088 (1995) except that stable transfectants of CHO cells were employed (gift from Prof. Michael McPhaul Southwestern Medical Center, Dallas, Tex.) that typically express 30-80 fmoles receptor/mg soluble protein.

[3] = target: T1, androgen receptor; assay: Ligand dependent transcription assay, CV1 cells co-transfected with AR and probasin luciferase reporter (pPBluc + AR); format: cell-based; design: expressed in transfected cells; host or cells: CV1 cells, transient co-transfection of pSGAR with the probasin-luciferase reporter pPBluc
Description: FIG. 2 is a graph showing the effect of N-(4-chlorophenyl)-(Z,Z)-2,3-bis(cyclopropyl-methylene)cyclopentane carboxamide on the activation of the androgen receptor in CV1 cells, as described in Example 4.
(§1) Ligand dependent transcription assays were performed as described in Schnmidt et al. "Identification of a new member of the steroid hormone receptor superfamily that is activated by a peroxisome proliferator and fatty acids," Mol. Endocrinol. 6:1634-1641 (1992). A luciferase cDNA expressed under the control of the promoter region of the probasin gene that confers androgen receptor dependent transcription was used as a reporter gene, see Rennie et al. "Characterization of two cis-acting DNA elements involved in the androgen regulation of the probasin gene" Mol Endocrinol. 7:23-36 (1993). The promoter region, -426 to +40 of the rat probasin gene was amplified by polymerase chain reaction (PCR) and inserted upstream of the luciferase cDNA of pGL3 Basic plasmid (Promega). The expression vector pSGAR that expressed the normal human AR was used as a source of receptor, see, Chang et al. "Molecular cloning of human and rat complementary DNA encoding androgen receptors," Science 240:324-326 (1988). Transient transfection of CV1 cells was performed by plating cells (1.5×10^5 per mL) into 12 well dishes in phenol red-free medium supplemented with 10% fetal calf serum treated with activated charcoal to remove endogenous steroids. Cells were then transfected the following day by addition of a calcium phosphate precipitate of plasmid DNA. Cells were then washed with fresh media after an overnight incubation and ligands were added. Cell extracts were prepared after forty eight hours and assayed for luciferase enzyme activity using the Luciferase Assay System (Promega). Each transfection was performed in triplicate and the […] of each sample was measured using the AutoChemiluminometer (Berthold).

[4] = system: probasin luciferase reporter gene; assay: Ligand dependent transcription assay, CV1 cells with probasin reporter gene and control plasmid, no AR (pPBluc); format: cell-based, rat
Description: as §1, with “6:1634-1641 (1992).” left out, “7:23-36 (1993). The promoter region, -426 to +40 of the rat probasin gene was amplified by polymerase chain reaction (PCR) and inserted upstream of the luciferase cDNA of pGL3 Basic plasmid (Promega). The expression vector pSGAR that expressed the normal human AR was used as a source of receptor, see, Chang et al. "Molecular cloning of human and rat complementary DNA encoding androgen receptors," Science 240:324-326 (1988).” left out

SMILES | antagonism of the action of testosterone on DDT1 cells [1] | inhibition of testosterone-induced DDT1 cell growth, comparison with hydroxyflutamide [1] | effect on testosterone-induced cell proliferation ([1]; compound at 10 μM with 10 nM testosterone) | effect on cell proliferation, compound alone ([1]; without testosterone, serum-free medium) | blocking of the binding of 3H-DHT [2] | inhibition of transactivation mediated by DHT ([3]; CV1 cells, 10 nM DHT) | luciferase expression from the pPBluc reporter gene, compound alone ([3]; CV1 cells, without DHT) | IC50 ([3]; read-out: Fifty percent inhibition of transactivation) [µM] | pPBluc, Light Units ± std ([4]; DHT 10^-7 M) [Light Units] | pPBluc, Light Units ± std ([4]; DHT 10^-9 M) [Light Units]
O=C(Nc1ccc(Cl)cc1)C1CCC(=C/C2CC2)/C1=C\C1CC1 (stereo not shown) [N-(4-chlorophenyl)-(Z,Z)-2,3-bis(cyclopropylmethylene)cyclopentane carboxamide] | antagonizes the action of testosterone on DDT1 cells | inhibits testosterone-induced DDT1 cell growth in a manner similar to that of hydroxyflutamide | reduced cell proliferation to levels close to that of the ethanol mock control | little or no effect on cell growth by itself; also recorded: little or no effect on cell proliferation | blocks the binding of ^3 H-DHT to the human androgen receptor expressed in stable transfectants of CHO cells at doses comparable to those that antagonize testosterone in DDT1 cells | inhibited the transactivation mediated by DHT in a dose dependent manner | did not affect luciferase expression | ~2 | – | –
C[C@]12CCC(=O)C[C@@H]1CC[C@@H]1[C@@H]2CC[C@]2(C)[C@@H](O)CC[C@@H]12 [DHT, 5α-dihydrotestosterone] | – | – | – | – | – | – | – | – | 3300 ± 1100 | 3000 ± 300
